The test system of test [1] is H9-derived hOPCs (Merck/Millipore). Put plainly: Microarray analysis of H9-derived hOPC mixed neural cultures treated with DITPA. The test is classed as cell-based, human. The settings on record: 48 hours. Here is the method: H9-derived hOPCs (Merck/Millipore) were differentiated for 4 weeks and the following treatments were administered to the cells for 48 hours: Medium with 0.01% absolute ethanol control; 1 ng/mL DITPA (DITPA 1 ng/mL); 10 ng/mL DITPA (DITPA 10 ng/mL); or 100 ng/mL DITPA (DITPA 100 ng/mL). 1 μg of collected mRNA from each population was hybridized to Human HT-12 v3.0 Gene Expression BeadChip (Illumina) according to the manufacturer's instruction (For detailed procedure see Supplemental Experimental Procedures).
H9-derived commercially available human neural precursors were cultured and differentiated according to the manufacturer's protocol (Human OPC differentiation kit, Millipore). Briefly, undifferentiated cells were maintained on 4% growth factor-reduced Matrigel (BD Biosciences) for a week in manufacturer provided expansion medium then differentiated on poly-L-ornithine (10 μg/mL, Sigma-Aldrich) and mouse laminin (10 μg/mL, Life Technologies) coated plates for 4 weeks in manufacturer provided medium.
Raw signal intensity values were subjected to variance stabilization transformation including background correction, log2 transformation and variance stabilization using the lumiR package of R Bioconductor (Du et al., 2008). Since there were fewer arrays of common genes detected in DITPA 100 ng/mL compared to DITPA 1 ng/mL and 10 ng/mL versus ethanol control, all analyses were performed without DITPA 100 ng/mL. Hierarchical clustering with centroid linkage clustering was performed. ANOVA analyses of normalized probe intensity values were performed in Partek Genomic Suite (Partek). ANOVA was used to calculate the significance of variation in normalized expression values between sample-groups, and fold change of gene expression was calculated as mean ratio. Absolute fold changes of 1.5 or more were defined as differentially expressed. Gene ontology enrichment analysis was performed on the list of differentially expressed probes in Partek.

Test [2] has as its system Pre-OLs from Nkx2.1-GFP+ sorted cultures at stage VI. Put plainly: Cell cycle analysis with BrdU (flow cytometry). It is filed as cell-based, human. Here is the method:
BrdU cell cycle analysis was performed according to the manufacturer's protocol (BD Biosciences). For a detailed protocol, see Supplemental Experimental Procedures.
Pre-OLs from Nkx2.1-GFP+ sorted cultures at stage VI day 7 and day 21 were pulsed with BrdU for 1 hour. Cells were then treated with DNAse I for 45 minutes then collected using accutase (Life Technologies). Collected cells were fixed and permeabilized and stained with anti-BrdU conjugated with APC for 30 minutes at 4° C. Cells were washed and stained with 7-AAD. Cells were then analyzed on LSR-Fortessa (BD Biosciences). Unpulsed cells and pulsed cells without anti-BrdU staining served as a negative control.
A general note: Flow cytometry measures light scatter and fluorescence of single cells or particles in a stream.

Test [3] deals with Pre-OLs from Nkx2.1-GFP+ sorted cultures at stage VI, day 21. Put plainly: Pharmacological blockade of MCT8 with Bosutinib, DAPI+ dead cells by flow cytometry. It is filed as cell-based, human. The settings on record: co-administration of 10 ng/mL DITPA with Bosutinib, 48 hours. Here is the method:
Pre-OLs from Nkx2.1-GFP+ sorted cultures at stage VI, day 21 were treated with the pharmacological inhibitor of MCT8, bosutinib (LC Laboratories, B-1788, reconstituted in dimethyl sulfoxide, [DMSO]) at different concentrations (1 ng/mL, 10 ng/mL and 100 ng/mL) with co-administration of 10 ng/mL DITPA. An MTT assay and flow cytometry were then performed on the cells stained for DAPI after 48 hours of treatment, to analyze DAPI+ dead cells.

The subject of test [4] is AHDS patients. The settings on record: cited from earlier work.
In test [5] the test system is slc16a2-/- zebrafish. The settings on record: cited from earlier work.
Where [6] appears, read: 1 and 10 ng/mL, vs ethanol control.

“Also recorded” adds a separate entry of the source.

Consider 1 compound from patent publication US10640748B2, “Oligodendroglial cell culturing methods and in methods for treating neurodegenerative disorders by using thyroid hormones or analogues” (NeuOrphan Pty Ltd, priority 2014, dated 2020).

On to `O=C(O)CCc1cc(I)c(Oc2ccc(O)cc2)c(I)c1` [DITPA, 3,5-Diiodothyropropionic acid], for which, in test [1] (setting [6]), the “ASCL1 expression (oligodendroglial enriched transcription factor)” value was “up-regulation”, the “CRYM (μ-crystallin) expression” value was “down-regulation”, the DIO3OS expression entry is recorded as “up-regulation” and the DIO3 expression result is reported as “up-regulation”. In addition, in test [1] (setting [6]), the “MYT1 expression (oligodendroglial enriched transcription factor)” value is “up-regulation”; the RARA expression entry is listed as “up-regulation”; the RARRES3 expression entry is listed as “down-regulation”; the “astrocyte and neuron enriched transcription factors regulated” value was “minimal”. Besides, the thrb expression entry in test [1] (setting [6]) was “up-regulation”. Moreover, the commonly regulated genes in test [1] (DITPA at 1 ng/mL and 10 ng/mL vs ethanol control) was 3385. In addition, in test [1] (upon DITPA treatment), the “up-regulation of metallothionein (MT1A)” value is on record as ~8 fold, the “up-regulation of p53” value is listed as ~2 fold and the “up-regulation of reprimo (RPRM)” value is ~13 fold. In addition, the cell cycle exit entry in test [2] (compared with T3) is on record as “potentiates cell cycle exit faster than T3”. The “numbers of cells in S phase” value in test [2] (day 7, compared with T3 alone) was “significant reduction”. Moreover, in test [3], the “cell death (DAPI+ dead cells) under Bosutinib MCT8 blockade” value is “significant reduction in cell death; also recorded: DITPA treatment of differentiating OPCs overcomes the cell death initiated by the”. Also, in test [4], the hypermetabolism entry was “reduce” and the peripheral hyperthyroidism entry was “normalize”. For the same compound, in test [5], the locomotor behavioral outcomes was “restored” and the myelin deficiencies entry is on record as “restored”.
